Results on four molecules are retold here after publication PMC8751734 (Cell Chemical Biology, 2022).

One data set deals with PL^pro. The following applies: ref Shin et al., 2020 (GRL-0617); Klemm et al., 2020 (rac5c); cited from earlier work.
Data set [1] has as its system SARS-CoV-2. As to the kind of experiment: Activity of ACF components against SARS-CoV-2 in vitro. It is filed as cell-based.
Data set [2] can be described thus: Pharmacokinetics study of ACF in CD-1 mice. It is filed as in vivo.
The test system of data set [3] is SARS-CoV-2. It is filed as cell-based.
Data set [4] deals with SARS-CoV-2. It is filed as cell-based. The source holds these as a separate data set.
The subject of data set [5] is SARS-CoV-2. The conditions noted are these: mouse, in vivo.
Data set [6] relates to SARS-CoV-2. It is filed as cell-based. The source holds these as a separate data set.

Consider `COc1cc(CNC(=O)C2CCN(C(C)c3cccc4ccccc34)CC2)ccn1` (racemic) [rac5c], for which, in the data set on PL^pro, the reported activity entry is on record as “active at the micromolar range”.

Consider `Cc1ccc(N)cc1C(=O)N[C@H](C)c1cccc2ccccc12` [GRL-0617], for which the reported activity result with PL^pro was “active at the micromolar range”.

For `Nc1ccc2cc3ccc(N)cc3nc2c1` [PF, 3,6-diaminoacridine], in the data set on SARS-CoV-2 [1], the “activity against SARS-CoV-2 in vitro” value is on record as “active”. Further, the “levels / exposure in lungs” value in data set [2] (IV 15 mg/kg and PO 100 mg/kg of commercial ACF) is “very high”. Besides, the oral bioavailability result in data set [2] (components of commercial ACF) is listed as “much higher bioavailability”.

For `CCC(CC)COC(=O)[C@H](C)N[P@](=O)(OC[C@H]1O[C@@](C#N)(c2ccc3c(N)ncnn23)[C@H](O)[C@@H]1O)Oc1ccccc1` [remdesivir], the “inhibition of SARS-CoV-2 replication (confocal microscopy)” value in the data set on SARS-CoV-2 [3] is listed as “inferior compared with 500 nM ACF”. In addition, the “elimination of SARS-CoV-2 (confocal microscopy)” value in the data set with SARS-CoV-2 [4] is reported as “nearly complete elimination”. For the same molecule, in the data set with SARS-CoV-2 [5], the “adverse effects in mice” value was “No adverse effects were observed” and the “decrease of viral loads in the brain” value is listed as 2–3 orders of magnitude. Moreover, the “virus yields in HAE cultures compared with PBS/untreated control” value in the data set on SARS-CoV-2 [6] was “significantly inhibited virus yields”.
